# Values quoted from earlier work as cited in patent US8461086B2, “Microcapsule composition for inhibiting an ethylene response in plants, method for preparing microcapsules, and method using the microcapsule composition” (Lytone Enterprise, Inc., priority 2009, dated 2013).
# Experiments:
# [1] = test system: plants; conditions: applied to plants
# [2] = test system: humans and livestock; conditions: within the effective concentration range
compound,measurement,setting,value
"CC1=CC1 [Example 1-MCP, 1-methylcyclopropene]",effective dosages,[1],0.1 to 1.0 ppm (vol/vol)
same,harm to humans and livestock,[2],does no harm
